What all share (experiment): NCI-60 cell line screen, 48 h
Assay [1] relates to A498 renal.
In assay [2] the test system is HOP-62 NSCLC.
In assay [3] the test system is HT29 colon.
For assay [4], the system named is M14 melanoma.
For assay [5], the system named is NCI-H23 lung.
Assay [6] deals with NCI-H522 lung.
Assay [7] has as its system OVCAR-8 ovarian.
The subject of assay [8] is RPMI-8226 leukemia.
Assay [9] relates to SK-MEL-2 melanoma.
Assay [10] has as its system U251 CNS.

Structures are written as SMILES.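 Grown in 96-well plates, cells were treated for 48 hours with each compound at five concentrations. Insufficient inhibition: endpoint recorded as highest concentration tested. GI50 is the concentration that inhibits growth by half. TGI denotes the concentration required for complete inhibition of growth.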 Bounds are passed on as bounds.

For the compound `C[C@]12CC[C@H]3[C@@H](CC=C4C[C@@H](O)CC[C@@]43C)[C@@H]1C/C(=C\c1cccc(OCCN3CCOCC3)c1)[C@@H]2O`, the GI50 was more than 100 µM in [1]; more than 100 µM in assay [2]; 7.36 µM in assay [3]; 24.3 µM in assay [4]; 48.5 µM in assay [5]; more than 100 µM in assay [6]. For the same compound, the GI50 was more than 100 µM in assay [7], 7.83 µM in assay [8], 55.2 µM in assay [9] and more than 100 µM in assay [10]. Further, the TGI in assay [1] is more than 100 µM; in [2], more than 100 µM; in [3], more than 100 µM; in assay [4], 69.2 µM; in assay [5] it was more than 100 µM; in [6], more than 100 µM. For the same compound, the TGI in assay [7], in assay [8], in [9] and in assay [10] was more than 100 µM in each case.

As to `CCN=C1NN=C(c2ccccc2)c2cc(Cl)ccc2N1`, the TGI in assay [1] was 90 µM; in [2], 48.2 µM; in assay [3], 32.3 µM; in [4], 33.5 µM; in assay [5], 64.6 µM; in [6] it was 30.2 µM. In addition, the TGI was found to be 69.4 µM in assay [7], 87.1 µM in [8], 32.8 µM in [9] and 42.6 µM in assay [10].

Turning to `CC1C(=O)N=C2C(=CN(Cc3ccccc3)c3ccccc32)C(=O)N1C` (centres undefined), the TGI in assay [1], in assay [3], in assay [4], in assay [5], in [6] and in assay [7] was more than 100 µM each time. Besides, the TGI in [8], in assay [9] and in [10] was more than 100 µM each time.

Turning to `S=C(Nc1ccccc1)c1ccccn1`, the GI50 in assay [1] was more than 100 µM; in assay [2], 81.9 µM; in [3] it was 50.1 µM; in assay [4], 28 µM; in assay [5], 75 µM; in assay [6], 14 µM. The GI50 in assay [7] is 75.3 µM; in [8], 41.7 µM; in [9], more than 100 µM; in [10], 38 µM. Also, the TGI is more than 100 µM in [1]; more than 100 µM in assay [2]; more than 100 µM in assay [3]; 97.1 µM in [4]; more than 100 µM in assay [5]; more than 100 µM in assay [6]. Also, the TGI in assay [7], in assay [8], in assay [9] and in assay [10] was more than 100 µM each time.

`O=C(Oc1ccccc1)c1cc(O)c(O)c(O)c1`: the GI50 in assay [1] was 5 µM; in assay [2] it was 5.13 µM; in assay [3] it was 30 µM; in [4] it was 11.9 µM; in [5] it was 11.7 µM; in [6] it was 4.1 µM. Moreover, the GI50 in [7] is 9.82 µM; in [8], 11.4 µM; in assay [9], 35.9 µM; in [10] it was 10.7 µM. Moreover, the TGI in assay [1] is 76.1 µM; in [2], 70.3 µM; in assay [3], more than 100 µM; in assay [4] it was 34 µM; in assay [5] it was 59.2 µM; in assay [6], 42.5 µM. Also, the TGI in assay [7], in [8], in assay [9] and in assay [10] was more than 100 µM in each case.

For `C/C(=N\NC(=S)N(C)C)c1ncc[nH]1`, the TGI in assay [1] is 16.7 µM; in [3], more than 100 µM; in [4], 5.69 µM; in assay [5], 5.07 µM; in assay [6], 9.01 µM; in assay [7], more than 100 µM. Also, the TGI in assay [8] was more than 100 µM; in assay [9], 70.9 µM; in assay [10], 5.22 µM.

As to `COc1ccc(/C=C/C(=O)c2ccc(Nc3ncnc4ccccc34)cc2)cc1OC`, the GI50 in [1] was 8.97 µM; in assay [2], 9.87 µM; in assay [3], 3.21 µM; in assay [4], 6.24 µM; in [5], 4.69 µM; in assay [6], 7.45 µM. Further, the GI50 in assay [7] is 7.03 µM; in [8], 0.365 µM; in assay [9], 13.9 µM; in assay [10], 3.66 µM. In addition, the TGI in assay [1] was more than 100 µM; in assay [2] it was 66.5 µM; in assay [3], 12.1 µM; in assay [4] it was more than 100 µM; in [5], more than 100 µM; in [6], 33.5 µM. In addition, the TGI is 57.2 µM in assay [7], 1.66 µM in assay [8], 44.8 µM in [9] and more than 100 µM in assay [10].

`O=C1C(NCCO)=C(N2CC2)C(=O)C(NCCO)=C1N1CC1`: the TGI in assay [1] is more than 100 µM; in assay [2], 66.7 µM; in [3], more than 81.8 µM; in assay [4] it was more than 100 µM; in assay [5], 74.6 µM; in [6] it was 70.6 µM. Further, the TGI is more than 85.7 µM in assay [7], more than 84.8 µM in assay [8], more than 73.9 µM in assay [9] and more than 71.6 µM in assay [10].

Turning to `COc1ccccc1NC(=O)CC(=O)n1nc(C)c(N=Nc2ccccc2F)c1C`, the TGI in [1] was more than 100 µM; in assay [2] it was more than 83.9 µM; in [3], more than 100 µM; in assay [4], more than 100 µM; in assay [5], more than 100 µM; in assay [6] it was more than 100 µM. Also, the TGI in assay [7], in assay [8], in assay [9] and in [10] was more than 100 µM throughout.

Turning to `OCCNc1nc(NCCO)nc(Nc2ccc(C3=NN(c4cc(Cl)cc(Cl)c4)C(c4ccc(Cl)cc4)C3)cc2)n1` (centres undefined), the GI50 in assay [1] is 1.73 µM; in assay [4], 1.69 µM; in assay [5], 1.72 µM; in assay [6] it was 2.03 µM; in [7], 2.08 µM; in assay [8], 1.91 µM. The GI50 in assay [9] was 2.13 µM; in [10], 1.51 µM. The TGI is 3.57 µM in assay [1]; 3.23 µM in assay [4]; 3.4 µM in assay [5]; 4.66 µM in assay [6]; 4.75 µM in assay [7]; 4.85 µM in [8]. Moreover, the TGI in assay [9] turned out to be 4.57 µM; in [10], 3.04 µM.

(Values after PubChem BioAssay (NCI).)
